Columns and labels:
[1] = Stability constants of competing chelators for Cu(II) (NIST / Sillen-Martell; log Kapp by Eq. 1-2); type: binding; details: at pH = 7.4, by Eq. 1 and 2
From the text: Department of Commerce) and […]

[2] = 25° C., cited from earlier work; for log K2 (stability constant for the M(Lc)2 species), Cu(II): ionic strength 0.1-0.2; for log K1 (stability constant for the MLc species), Cu(II): ionic strength 0.1-0.2, metal ion to chelator 1/1
[3] = UV-visible spectrophotometric titration with CuCl2 (metal/ligand stoichiometry); type: binding; details: 15 μM ligand; Tris-HCl buffer pH 7.4/organic solvent, per ligand as in Table 3 column Solvent
Experimental: (§1) An organic solvent (CH3OH, dioxane or DMSO) was added in order to achieve good solubility of the ligands and metal complexes in the concentrations used in these experiments. Exact proportions of the organic solvent/buffer mixture are specified for each UV-visible characterisation of the different ligands or metal complexes.
(§2) Aliquot portions of concentrated CuCl2 or ZnCl2 solutions (M) are added to a 15 μM ligand solution so as to induce only negligible variations in volume. After each addition, changes in absorption spectra are observed immediately and are consistent between two additions, which corresponds to a rapid complexing process. The exact absorption values relating to each ligand and the copper(II) or zinc(II) complexes thereof are detailed hereinafter in the Experimental part (in the Synthesis part for ligands and hereinafter for the metal complexes).
(§3) The stoichiometry of the different ligands (L) for Cu(II) or ZN(II) have therefore been determined spectrophotometrically by metal ion titration. In this example, for an M/L ratio increasing from 0 to 1, π→π* with transition, centred at 251 nm for the free ligand, is shifted to a lower energy with a concomitant appearance of an absorption band in the visible region of the spectrum (λmax to 383 nm), which is probably the result of an MLCT transition. For greater M/L ratios, no additional change in the UV-visible absorption spectra is observed.

[4] = UV-visible spectrophotometric titration with ZnCl2 (metal/ligand stoichiometry); type: binding; details: 15 μM ligand; Tris-HCl buffer pH 7.4/organic solvent, per ligand as in Table 3 column Solvent
Experimental: as §1, §2, §3

[5] = Competition reaction between ligand (Ls), ZnCl2 and competing chelator (Lc), UV-visible; affinity constants; type: binding; details: Ls/ZnCl2/Lc 1/1/1 at 15 μM; solvent per ligand as in Table 3
Experimental: An organic solvent (CH3OH, dioxane or DMSO) was added in order to achieve good solubility of all the ligands and metal complexes in the concentrations used in these experiments.
As the concentration [MLs]=x % of C is measured on the UV-visible spectra, the concentrations [Ls]=(1−x) % of C, [MLc]=(1−x) % of C and [Lc]=x % of C can be deduced therefrom and:
In these conditions, [MLs]=[MLc]; [MLs]+[Lc]=Y, y≧50 and:
When log Ks 6, these equations are not used since the percentages of metal ion which is free in the solution or chelated by the solvent or the buffer are not negligible.

Aβ1-42 = biological target: T1, Aβ1-42 (Homo sapiens, UniProt P05067); experiment: Inhibition of the precipitation of Aβ1-42 by the addition of ligand (Micro BCA assay of soluble/aggregated peptide); type: biochemical; details: Aβ1-42 5 μM, pH 7.4; for CuCl2 % soluble Aβ: 20 μM CuCl2, 1 h 37° C. then 1 h with 200 μM ligand; for FeCl3 % soluble Aβ: 20 μM FeCl3, 1 h 37° C. then 1 h with 200 μM ligand; for ZnCl2 % soluble Aβ: 20 μM ZnCl2, 1 h 37° C. then 1 h with 200 μM ligand; for without metal % soluble Aβ: no metal salt, 1 h 37° C. then 1 h with 200 μM ligand
T1 construct: The β-amyloid peptide Aβ1-42 (Aβ1-42) was synthesised, purified (to a purity greater than 95%); made in house; host or cells: chemical peptide synthesis (no expression host)
Experimental: After a further hour of incubation, the reaction mixture is centrifuged.
Before use, the water [of Milli-Q Millipore quality] and all buffer solutions were treated on Chelex-100 resin (Biorad) (5 mg/ml) and filtered through 0.2 μm filters (Whatman) to remove potential traces of metal ions or particles.
Working solutions of the peptide were prepared by solubilising 1 mg of lyophilised peptide in 500 μl of water and 500 μl of an aqueous NaOH solution pH=12.0, while stirring in a Thermomixer Comfort (Eppendorf). The peptide preparations are subsequently centrifuged for 10 minutes at 9,000 rpm and the supernatant is used as an “Aβ stock” solution. The concentration of peptide in the “Aβ stock” is determined immediately by colorimetric assay using a Micro BCA Protein Assays kit (Pierce) from standard ranges produced using known amounts of bovine serum albumin (BSA) then the Aβ1-42 peptide solution is aliquoted and frozen rapidly in liquid nitrogen prior to being stored at −20° C. until being used.
Salts are generated by adding one hydrochloric acid equivalent per nitrogen group equivalent of the ligand dissolved in DMSO. After evaporation of the solvent, these salts are dissolved at the desired concentration with DMSO and kept at −20° C. until they are used.
The protocol was established from works by: C. S. Atwood et al., J. Neurochem. […] The final concentrations are given. 500 μl of Aβ1-42 (5 μM is set to aggregate in 20 mM Tris-HCl buffer containing 150 mM NaCl (pH=7.4) for 1 hour at 37° C. while stirring at 1,400 rpm in the absence or presence of metal ions: CuCl2, ZnCl2 or FeCl3 (20 μM). Then 50 pi of ligand to be tested (200 μM) dissolved in DMSO are added and the samples are incubated for 1 further hour at 37° C. while stirring at 1,400 rpm. The samples without ligand also receive 50 μl of DMSO. The samples (final volume=550 μ) are subsequently centrifuged for 20 min at 9,000 rpm, and 500 μl of supernatant are removed. The tube containing the precipitation pellet then receives 450 μl of assay buffer/DMSO mixture (91/9, v/v). […] Quantification is carried out on the basis of standard BSA ranges. The amounts of Aβ1-42 actually contained in the pellet and the supernatant are obtained after a correction due to the presence of a residual portion of supernatant in the pellet-containing fraction.
For the control experiments with derivatives comprising a single quinoline residue, […] of ligand were added because complexes of type L2Cu are conventionally used in these cases.

[6] = Hydrogen peroxide produced by Aβ1-42 in the presence of CuCl2, ascorbate, air and ligand (Amplex Red H2O2/HRP); type: biochemical; details: ligand 1 eq/Cu(II) (0.4 μM); CuCl2 0.4 μM, ascorbate 10 μM, air
Experimental: (§4) FIG. 11: Variation in H2O2 production by copper complexes of Aβ1-42 peptide as a function of the Cu(II)/Aβ stoichiometry. Experiments are carried out for 5 minutes in a sodium phosphate buffer (pH=7.4) in the presence 0.4 μM CuCl2, 10 μM ascorbate and air with or without 0.4 μM of 3 or 7. The H2O2 released is quantified by means of an Amplex-Red H2O2/HRP Assay kit.
(§5) The final concentrations are given. The reactions were carried out in the dark in mM sodium phosphate buffer (pH=7.4). Aβ1-42 (0.2 μM) and CuCl2 (0.4 μM) were pre-incubated for 1 hour at 37° C. while stirring at 1,400 rpm in 375 μl of buffer. Then 2 μl of a solution of ligand to be investigated (0.2; 0.4 or 0.8 μM) in DMSO were added. After incubation for a further hour, 2 μl of an aqueous sodium ascorbate solution (10 μM) were added and incubation was continued for 5 min while stirring. The amount of H2O2 produced is then quantified using an Amplex Red H2O2/HRP Assay Kit (Molecular Probes) while adding a volume of assay reagent to the samples, then incubating them for 1 hour at 37° C. while stirring at 500 rpm. […] Quantification is carried out on the basis of standard curves obtained with known amounts of H2O2.
(§6) The figures in the tables correspond to the amount of H2O2 (expressed in nanomoles) added using an Amplex Red H2O2/HRP Assay kit.

[7] = biological target: T2, copper complexes of Aβ1-42 peptide (Homo sapiens, UniProt P05067); experiment: as above; type: biochemical; details: for amount of H2O2, 0.2 μM Aβ1-42 Cu/Aβ = 2 / amount of H2O2, 0.5 μM Aβ1-42 Cu/Aβ = 0.75: ligand 1 eq/Cu(II) (0.4 μM), CuCl2 0.4 μM, ascorbate 10 μM, air
T2 construct: The β-amyloid peptide Aβ1-42 (Aβ1-42) was synthesised, purified (to a purity greater than 95%); made in house; host or cells: chemical peptide synthesis (no expression host)
Experimental: as §4, §5, §6

[8] = Determination of log D7.4 (1-octanol / Tris-HCl buffer); type: physicochemical; details: 1-octanol / 20 mM Tris-HCl buffer containing 150 mM NaCl (pH = 7.4) (1/1, v/v)
Experimental: The ligand (2.0 mg) is dissolved in 2 ml of 1-octanol then 2 ml of 20 mM Tris-HCl buffer, pH=7.4 containing 150 mM NaCl are added. After mixing in a vortex for 3 min at ambient temperature, followed by centrifugation for 5 min at 9,000 rpm, the concentration of the ligand in each phase is determined by UV-visible spectrophotometry. The 1-octanol fractions are thus redivided until reproducible values of coefficient of division of obtained. This coefficient is expressed as the decimal logarithm of [(the concentration of ligand contained in the 1-octanol phase)/(the concentration of ligand contained in the buffered aqueous phase)]=log D7.4. Measurements were taken three times.

[9] = Competition reaction between ligand (Ls), CuCl2 and competing chelator (Lc), UV-visible; affinity constants
Experimental: An organic solvent (CH3OH, dioxane or DMSO) was added in order to achieve good solubility of all the ligands and metal complexes in the concentrations used in these experiments. Monitoring has shown that all the ligands and metal complexes examined yield results corresponding to the Beer-Lambert Law in the experimental conditions used.
Lc competing chelators were selected to provide a range of stability constants for the metal ion M presenting intervals of approximately one or two log units, as well as to make it possible for each competition experiment to quantify one of the Ls, MLs, Lcc or MLc species with a UV-vis spectrum wavelength without contaminating the three other species (FIG. 7). […] As the concentration [MLs]=x % of C is measured on the UV-visible spectra, the concentrations [Ls]=(1−x) % of C, [MLc]=(1−x) % of C and [Lc]=x % of C can be deduced therefrom and:

[10] = Number of ZnCl2 equivalents for the ligand to be entirely in the form of Zn(II) complex; type: binding; details: competition with the tris buffer and the DMSO
[11] = Stability constants of competing chelators for Zn(II) (NIST / Sillen-Martell; log Kapp by Eq. 1-2); details: for log Kapp of comparison chelators for Zn(II): comparison chelators of b563
From the text: log Kapp=log K-log α (Eq. 1)
α=[H^+]^n/(Ka1×Ka2×Ka3× . . . Kan)+[H^+]^n-1/(Ka1×Ka2×Ka3× . . . Kan-1)+ . . . +[H^+]/Ka1+1 (Eq. 2)

[12] = Ls/CuCl2/Lc 1/1/1 at 15 μM, solvent per ligand as in Table 3
[13] = mixture of Ls (15 μM, 1 equivalent) and CuCl2 (1/1, mol/mol)

T1 sequence (P05067 672-713): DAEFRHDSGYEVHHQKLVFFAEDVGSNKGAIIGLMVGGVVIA
T2 sequence (P05067 672-713 limits assumed, one chain of several): as the sequence (P05067 672-713) above

SMILES | log K1 app, Cu(II) [1] | log K2 (stability constant for the M(Lc)2 species), Cu(II) [2] | Complex observed by titration with Cu^II (observed L/Cu(II) stoichiometry) [3] | Complex observed by titration with Zn^II (observed L/Zn(II) stoichiometry) [4] | percentage of ZnLs species at equilibrium, competing ligand EDTA [5] | CuCl2 % soluble Aβ (Aβ1-42) | FeCl3 % soluble Aβ (Aβ1-42) | ZnCl2 % soluble Aβ (Aβ1-42) | without metal % soluble Aβ (Aβ1-42) | amount of H2O2, without Aβ1-42 [6] | amount of H2O2, 0.2 μM Aβ1-42 Cu/Aβ = 2 [7] | amount of H2O2, 0.5 μM Aβ1-42 Cu/Aβ = 0.75 [7] | percentage of the CuLs species at equilibrium, competing ligand EDTA [9, 12] | other results
NCCN [EDA, ethylenediamine] | 7.8 | 9.1 | – | – | – | – | – | – | – | – | – | – | – | –
Oc1cccc2ccc(CCc3ccc4cccc(O)c4n3)nc12 [Compound 7, 2,2′-(1,2-Ethanediyl)-bis(8-hydroxyquinoline)] | – | – | LCu^II(1/1) | LZn^II(1/1) | 55% | 35% | 40% | 60% | 59% | 0.75 nmol | 0.89 ± 0.07 nmol | 0.68 nmol | 55% | H2O2 production as a function of the Cu/Aβ1-42 ratio ([7]; FIG. 11, 1 equivalent of ligand per Cu(II) (0.4 μM), Aβ1-42 0.2 to 0.53 μM): virtually inhibit H2O2 production; logD at 3 min [8]: 3.5 ± 0.1; number of Lc equivalents making it possible to form 50% of CuLs, Lc = EDTA [9, 13]: 1.1 eq
c1cnc2c(c1)ccc1cccnc12 [1,10-phenanthroline] | – | – | – | – | – | – | – | – | – | – | – | – | – | number of ZnCl2 equivalent for 15 μM of ligand to be entirely in the form of Zn(II) complex [10]: 50 eq ZnCl2; log Kapp of comparison chelators for Zn(II) [11]: 6.3
NCCNCCN [Dien, diethylenetriamine] | 11.8 | 5.0 | – | – | – | – | – | – | – | – | – | – | – | –
Oc1c(I)cc(Cl)c2ccc(CCc3ccc4c(Cl)cc(I)c(O)c4n3)nc12 [Compound 9, 2,2′-(1,2-Ethanediyl)-bis(5-chloro-7-iodo-8-hydroxyquinoline)] | – | – | LCu^II(1/1) | LZn^II(1/1) | 65% | 19% | 38% | 47% | 36% | 0.66 nmol | 0.82 ± 0.08 nmol | 0.82 nmol | 60% | percentage of ZnLs species at equilibrium, competing ligand NTA [5]: 100%; percentage of ZnLs species at equilibrium, competing ligand Trien [5]: 100%; logD at 3 min [8]: 5.6 ± 0.5; percentage of the CuLs species at equilibrium, competing ligand Dien [9, 12]: 100%; percentage of the CuLs species at equilibrium, competing ligand Tetren [9, 12]: 0%; percentage of the CuLs species at equilibrium, competing ligand Trien [9, 12]: 45%; number of Lc equivalents making it possible to form 50% of CuLs, Lc = Trien [9, 13]: 0.75 eq
O=C(O)CN(CCOCCOCCN(CC(=O)O)CC(=O)O)CC(=O)O [EGTA, ethylenebis(oxyethylenenitrilo)-tetraacetic acid] | – | – | – | – | – | – | – | – | – | – | – | – | – | log K1 app, Zn(II) ([11]; at pH = 7.4, by Eq. 1 and 2): 9.4
O=C(O)CN(CCO)CC(=O)O [HIDA, N-(2-hydroethyl)iminodiacetic acid] | 10.5 | – | – | – | – | – | – | – | – | – | – | – | – | log K1 (stability constant for the MLc species), Cu(II) [2]: 11.8
Oc1ccc(Cl)c2ccc(CCc3ccc4c(Cl)ccc(O)c4n3)nc12 [Compound 8, 2,2′-(1.2-Ethanediyl)-bis(5-chloro-8-hydroxyquinoline 8)] | – | – | LCu^II(1/1) | LZn^II(1/1) | 30% | 36% | 41% | 58% | 59% | 0.66 nmol | 0.89 ± 0.09 nmol | 0.64 nmol | 40% | log D7.4 [8]: 4.2 ± 0.1; number of Lc equivalents making it possible to form 50% of CuLs, Lc = EDTA [9, 13]: 0.65 eq
c1ccc(-c2ccccn2)nc1 [biPy, 2,2′-bipyridine] | 8.1 | 5.5 | – | – | – | – | – | – | – | – | – | – | – | number of ZnCl2 equivalent for 15 μM of ligand to be entirely in the form of Zn(II) complex [10]: 250 eq ZnCl2; log K1 (stability constant for the MLc species), Cu(II) [2]: 8.1; log Kapp of comparison chelators for Zn(II) [11]: ≈ 5
